Data on 27 compounds can be found in US9708334B2, “Substituted 2,4,5,6-tetrahydropyrrolo[3,4-c]pyrazole and 4,5,6,7-tetrahydro-2H-pyrazolo[4,3-c]pyridine compounds as GlyT1 inhibitors” (DART NEUROSCIENCE (CAYMAN) LTD., priority 2014, dated 2017).

The assay addresses T1, GlyT1 (Homo sapiens, UniProt P48067).
T1 construct: expressed in transfected cells
T1 sequence (P48067 1-706): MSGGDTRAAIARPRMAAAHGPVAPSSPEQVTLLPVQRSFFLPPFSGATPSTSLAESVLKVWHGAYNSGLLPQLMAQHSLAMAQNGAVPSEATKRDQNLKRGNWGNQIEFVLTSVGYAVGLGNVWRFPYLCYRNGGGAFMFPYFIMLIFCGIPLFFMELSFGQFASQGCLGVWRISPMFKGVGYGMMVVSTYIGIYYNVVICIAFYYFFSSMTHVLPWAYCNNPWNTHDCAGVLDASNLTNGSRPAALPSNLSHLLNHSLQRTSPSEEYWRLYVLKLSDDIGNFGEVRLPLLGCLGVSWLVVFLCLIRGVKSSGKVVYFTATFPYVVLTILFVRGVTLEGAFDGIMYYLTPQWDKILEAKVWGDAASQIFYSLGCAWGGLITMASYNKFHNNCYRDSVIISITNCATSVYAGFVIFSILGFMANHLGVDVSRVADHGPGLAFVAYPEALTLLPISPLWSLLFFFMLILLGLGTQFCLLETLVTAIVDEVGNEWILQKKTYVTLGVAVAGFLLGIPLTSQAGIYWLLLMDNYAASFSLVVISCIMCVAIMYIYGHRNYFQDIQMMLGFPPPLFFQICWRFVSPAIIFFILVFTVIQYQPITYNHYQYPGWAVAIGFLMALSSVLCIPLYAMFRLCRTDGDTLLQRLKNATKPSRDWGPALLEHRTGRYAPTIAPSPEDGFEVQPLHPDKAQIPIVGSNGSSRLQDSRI
Kind of assay: Glycine Transporter 1 (GlyT1) uptake assay, scintillation proximity assay of [14C]-glycine uptake. In kind it is cell-based. To be noted: SPA, four parameter logistic fit, read-out: GlyT1 (pIC50) (converted). An outline of the steps:
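[14C]-glycine uptake read by scintillation proximity on a plate counter. IC50 from four-parameter logistic fit of dose-response data.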
In general terms: Scintillation proximity formats need no separation of bound from free tracer.
For the compound `Cc1cc(-n2cc3c(n2)CN(C(=O)c2cc(C#N)ccc2O[C@@H](C)C(F)(F)F)C3)ncc1F` [Example 348], the IC50 is 100 to 1000 nM.

Turning to `C[C@H](Oc1ccc(C#N)cc1C(=O)N1Cc2cn(-c3ccccn3)nc2C1)C(F)(F)F` [Example 349, 3-[2-(Pyridin-2-yl)-2H 4H 5H 6H-pyrrolo[3,4-c]pyrazole-5-carbonyl]-4-{[(2 S)-1 1 1-trifluoropropan-2-yl]oxy}benzonitrile], the IC50 was 100 to 1000 nM.

`CS(=O)(=O)c1ccc(C2CCCC2)c(C(=O)N2Cc3cn(-c4ccc(F)cc4)nc3C2)c1` [Example 350, 5-(2-Cyclopentyl-5-methanesulfonylbenzoyl)-2-(4-fluorophenyl)-2H 4H 5H 6H-pyrrolo[3,4-c]pyrazole]: the IC50 was under 100 nM.

Take `Cc1ncc(-n2cc3c(n2)CN(C(=O)c2cc(C#N)ccc2O[C@@H](C)C(F)(F)F)C3)cc1F` [Example 351, 3-[2-(5-Fluoro-6-methylpyridin-3-yl)-2H 4H 5H 6H-pyrrolo[3,4-c]pyrazole-5-carbonyl]-4-{[(2 S)-1 1 1-trifluoropropan-2-yl]oxy}benzonitrile]: the IC50 was 100 to 1000 nM.

As to `Cc1c(F)cncc1-n1cc2c(n1)CN(C(=O)c1cc(C#N)ccc1O[C@@H](C)C(F)(F)F)C2` [Example 352, 3-[2-(5-Fluoro-4-methylpyridin-3-yl)-2H 4H 5H 6H-pyrrolo[3,4-c]pyrazole-5-carbonyl]-4-{[(2 S)-1 1 1-trifluoropropan-2-yl]oxy}benzonitrile], the IC50 was 100 to 1000 nM.

For `Cc1cc(-n2cc3c(n2)CN(C(=O)c2cc(C#N)ccc2O[C@@H](C)C(F)(F)F)C3)ccn1` [Example 353, 3-[2-(2-Methylpyridin-4-yl)-2H 4H 5H 6H-pyrrolo[3,4-c]pyrazole-5-carbonyl]-4-{[(2S)-1 1 1-trifluoropropan-2-yl]oxy}benzonitrile], the IC50 is under 100 nM.

Consider `Cc1ncc(F)cc1-n1cc2c(n1)CN(C(=O)c1cc(C#N)ccc1O[C@@H](C)C(F)(F)F)C2` [Example 354, 3-[2-(5-Fluoro-2-methylpyridin-3-yl)-2H 4H 5H 6H-pyrrolo[3,4-c]pyrazole-5-carbonyl]-4-{[(2S)-1 1 1-trifluoropropan-2-yl]oxy}benzonitrile], for which the IC50 was 1000 to 10000 nM.

On to `Cc1cc(-n2cc3c(n2)CN(C(=O)c2cc(S(C)(=O)=O)ccc2O[C@@H](C)C(F)(F)F)C3)ccn1` [Example 356, 4-[5-(5-Methanesulfonyl-2-{[(2S)-1 1 1-trifluoropropan-2-yl]oxy}benzoyl)-2H 4H 5H 6H-pyrrolo[3,4-c]pyrazol-2-yl]-2-methylpyridine], for which the IC50 is under 100 nM.

`Cc1ccnc(-n2cc3c(n2)CN(C(=O)c2cc(S(C)(=O)=O)ccc2O[C@@H](C)C(F)(F)F)C3)c1` [Example 357, 2-[5-(5-Methanesulfonyl-2-{[(2S)-1 1 1-trifluoropropan-2-yl]oxy}benzoyl)-2H 4H 5H 6H-pyrrolo[3,4-c]pyrazol-2-yl]-4-methylpyridine]: the IC50 was under 100 nM.

In the case of `Cc1cc(-n2cc3c(n2)CN(C(=O)c2cc(S(C)(=O)=O)ccc2O[C@@H](C)C(F)(F)F)C3)ncc1F` [Example 359, 5-Fluoro-2-[5-(5-methanesulfonyl-2-{[(2S)-1 1 1-trifluoropropan-2-yl]oxy}benzoyl)-2H 4H 5H 6H-pyrrolo[3,4-c]pyrazol-2-yl]-4-methylpyridine], the IC50 is under 100 nM.

As for `Cc1cccc(-n2cc3c(n2)CN(C(=O)c2cc(S(C)(=O)=O)ccc2O[C@@H](C)C(F)(F)F)C3)n1` [Example 360, 2-[5-(5-Methanesulfonyl-2-{[(2S)-1 1 1-trifluoropropan-2-yl]oxy}benzoyl)-2H 4H 5H 6H-pyrrolo[3,4-c]pyrazol-2-yl]-6-methylpyridine], the IC50 is under 100 nM.

Take `Cc1cc(F)cnc1-n1cc2c(n1)CN(C(=O)c1cc(S(C)(=O)=O)ccc1O[C@@H](C)C(F)(F)F)C2` [Example 361, 5-Fluoro-2-[5-(5-methanesulfonyl-2-{[(2S)-1 1 1-trifluoropropan-2-yl]oxy}benzoyl)-2H 4H 5H 6H-pyrrolo[3,4-c]pyrazol-2-yl]-3-methylpyridine]: the IC50 was 100 to 1000 nM.

As for `Cc1nc(-n2cc3c(n2)CN(C(=O)c2cc(S(C)(=O)=O)ccc2O[C@@H](C)C(F)(F)F)C3)ccc1F` [Example 362, 3-Fluoro-6-[5-(5-methanesulfonyl-2-{[(2S)-1 1 1-trifluoropropan-2-yl]oxy}benzoyl)-2H 4H 5H 6H-pyrrolo[3,4-c]pyrazol-2-yl]-2-methylpyridine], the IC50 is under 100 nM.

As to `CS(=O)(=O)c1ccc(N2CCCCC2)c(C(=O)N2Cc3cn(-c4ccc(F)cc4)nc3C2)c1` [Example 363, 1-{2-[2-(4-Fluorophenyl)-2H 4H 5H 6H-pyrrolo[3,4-c]pyrazole-5-carbonyl]-4-methanesulfonylphenyl}piperidine], the IC50 is under 100 nM.

Consider `COc1cc(-n2cc3c(n2)CN(C(=O)c2cc(C#N)ccc2O[C@@H](C)C(F)(F)F)C3)ccn1` [Example 364, 3-[2-(2-Methoxypyridin-4-yl)-2H 4H 5H 6H-pyrrolo[3,4-c]pyrazole-5-carbonyl]-4-{[(2S)-1 1 1-trifluoropropan-2-yl]oxy}benzonitrile], for which the IC50 is under 100 nM.

Turning to `COc1cc(-n2ncc3c2CN(C(=O)c2cc(C#N)ccc2O[C@@H](C)C(F)(F)F)C3)ccn1` [Example 365, 3-[1-(2-Methoxypyridin-4-yl)-1H 4H 5H 6H-pyrrolo[3,4-c]pyrazole-5-carbonyl]-4-{[(2S)-1 1 1-trifluoropropan-2-yl]oxy}benzonitrile], the IC50 is 1000 to 10000 nM.

Turning to `COc1cc(-n2ncc3c2CN(C(=O)c2cc(C#N)ccc2OC(C)C)C3)ccn1` [Example 366, 3-[1-(2-Methoxypyridin-4-yl)-1H 4H 5H 6H-pyrrolo[3,4-c]pyrazole-5-carbonyl]-4-(propan-2-yloxy)benzonitrile], the IC50 was 1000 to 10000 nM.

With `CCc1cc(-n2cc3c(n2)CN(C(=O)c2cc(C#N)ccc2O[C@@H](C)C(F)(F)F)C3)ccn1` [Example 367, 3-[2-(2-Ethylpyridin-4-yl)-2H 4H 5H 6H-pyrrolo[3,4-c]pyrazole-5-carbonyl]-4-{[(2S)-1 1 1-trifluoropropan-2-yl]oxy}benzonitrile], the IC50 was under 100 nM.

On to `CCc1cc(-n2cc3c(n2)CN(C(=O)c2cc(C#N)ccc2OC(C)C)C3)ccn1` [Example 368, 3-[2-(2-Ethylpyridin-4-yl)-2H 4H 5H 6H-pyrrolo[3,4-c]pyrazole-5-carbonyl]-4-(propan-2-yloxy)benzonitrile], for which the IC50 is under 100 nM.

As for `COc1cc(-n2cc3c(n2)CN(C(=O)c2cc(C#N)ccc2OC(C)C)C3)ccn1` [Example 369, 3-[2-(2-Methoxypyridin-4-yl)-2H 4H 5H 6H-pyrrolo[3,4-c]pyrazole-5-carbonyl]-4-(propan-2-yloxy)benzonitrile], the IC50 is under 100 nM.

As to `CCOc1cc(-n2cc3c(n2)CN(C(=O)c2cc(C#N)ccc2OC(C)C)C3)ccn1` [Example 370, 3-[2-(2-Ethoxypyridin-4-yl)-2H 4H 5H 6H-pyrrolo[3,4-c]pyrazole-5-carbonyl]-4-(propan-2-yloxy)benzonitrile], the IC50 is 100 to 1000 nM.

For `CCOc1cc(-n2cc3c(n2)CN(C(=O)c2cc(C#N)ccc2O[C@@H](C)C(F)(F)F)C3)ccn1` [Example 371, 3-[2-(2-Ethoxypyridin-4-yl)-2H 4H 5H 6H-pyrrolo[3,4-c]pyrazole-5-carbonyl]-4-{[(2S)-1 1 1-trifluoropropan-2-yl]oxy}benzonitrile], the IC50 was 100 to 1000 nM.

On to `CC(C)Oc1cc(-n2cc3c(n2)CN(C(=O)c2cc(C#N)ccc2OC(C)C)C3)ccn1` [Example 373, 4-(Propan-2-yloxy)-3-{2-[2-(propan-2-yloxy)pyridin-4-yl]-2H 4H 5H 6H-pyrrolo[3,4-c]pyrazole-5-carbonyl}benzonitrile], for which the IC50 was 100 to 1000 nM.

With `CC(C)Oc1ccc(C#N)cc1C(=O)N1Cc2cn(-c3ccnc(C(C)C)c3)nc2C1` [Example 374, 3-{2-[2-(Propan-2-yl)pyridin-4-yl]-2H 4H 5H 6H-pyrrolo[3,4-c]pyrazole-5-carbonyl}-4-(propan-2-yloxy)benzonitrile], the IC50 was under 100 nM.

Consider `CC(C)c1cc(-n2cc3c(n2)CN(C(=O)c2cc(C#N)ccc2O[C@@H](C)C(F)(F)F)C3)ccn1` [Example 375, 3-{2-[2-(Propan-2-yl)pyridin-4-yl]-2H 4H 5H 6H-pyrrolo[3,4-c]pyrazole-5-carbonyl}-4-{[(2S)-1 1 1-trifluoropropan-2-yl]oxy}benzonitrile], for which the IC50 is under 100 nM.

As to `COc1c(C#N)ccc(C2(F)CCCC2)c1C(=O)N1Cc2cn(-c3ccnc(C)c3)nc2C1` [Example 376, 4-(1-Fluorocyclopentyl)-2-methoxy-3-[2-(2-methylpyridin-4-yl)-2H 4H 5H 6H-pyrrolo[3,4-c]pyrazole-5-carbonyl]benzonitrile], the IC50 is under 100 nM.

`COc1c(C#N)ccc(C2(F)CCCC2)c1C(=O)N1Cc2cn(-c3cncc(F)c3)nc2C1` [Example 377, 4-(1-Fluorocyclopentyl)-3-[2-(5-fluoropyridin-3-yl)-2H 4H 5H 6H-pyrrolo[3,4-c]pyrazole-5-carbonyl]-2-methoxybenzonitrile]: the IC50 is under 100 nM.
